Legend:
Type in all cases: in vivo
Abutilon theophrasti = experiment: Field trial post-emergence in maize: ABUTH; conditions: 31-48 DAA; # = 2; g a.c./ha: PYR 300, MES 100, PYR + MES 300 + 90
Protocol: (§1) Herbicidal activity of herbicide compositions according to the first aspect of the present invention with regard to different types of unwanted vegetation was determined during trials performed on test fields (field trials). Individual compositions comprising pyridate and individual compositions comprising a defined 4-HPPD inhibitor are compared with a herbicide composition according to the invention comprising both pyridate and a defined 4-HPPD inhibitor. The expected activity of the combination of the active compounds pyridate and a defined 4-HPPD inhibitor is calculated according to above mentioned calculation method by Colby, in order to evaluate a synergistic effect between pyridate and a defined 4-HPPD inhibitor.
(§2) Herbicidal activity was determined by applying herbicide compositions on emerged unwanted vegetation on fields where maize was cultivated. Pyridate and a defined 4-HPPD inhibitor were applied as a tank mixture by mixing these active compounds prior to use in a spray tank. The corresponding mixture was in the form of a spray liquor. […] At a specified number of days after application (DAA), the degree of damage to the unwanted vegetation is rated in % of plants of unwanted vegetation that were killed, which was assessed by visually controlling the plants.

Datura stramonium = experiment: Field trial post-emergence in maize: DATST; conditions: 7-14 DAA; # = 2; g a.c./ha: PYR 300, MES 100, PYR + MES 300 + 90
Protocol: as §1, §2

[1] = system: Tripleurospermum inodorum; experiment: Field trial post-emergence in maize: MATIN; conditions: for herbicidal effect (h.e.): # = 1, g a.c./ha: PYR 300, MES 100, PYR + MES 300 + 90
Protocol: as §1
(§3) Herbicidal activity was determined by applying herbicide compositions on emerged unwanted vegetation on fields where maize was cultivated. Pyridate and a defined 4-HPPD inhibitor were applied as a tank mixture by mixing these active compounds prior to use in a spray tank. The corresponding mixture was in the form of a spray liquor. Besides, spray liquors of individual compositions comprising pyridate and of individual compositions comprising a defined 4-HPPD inhibitor were used. Test plants of unwanted vegetation with a growth stage corresponding to BBCH 10-18 (according to the extended BBCH-scale) were sprayed with the active compound preparations such that particular desired amounts of active compounds are applied per unit area. Spray liquor was diluted with water to arrive at an application volume of 50 to 450 L/ha. At a specified number of days after application (DAA), the degree of damage to the unwanted vegetation is rated in % of plants of unwanted vegetation that were killed, which was assessed by visually controlling the plants.

Portulaca oleracea = experiment: Field trial post-emergence in maize: POROL; conditions: # = 1, g a.c./ha: PYR 300, MES 100, PYR + MES 300 + 90
Protocol: as §1, §3

Sonchus oleraceus = experiment: Field trial post-emergence in maize: SONOL; conditions: # = 1, g a.c./ha: PYR 300, MES 100, PYR + MES 300 + 90
Protocol: as §1, §3

Veronica persica [2] = experiment: Field trial post-emergence in maize: VERPE; conditions: for herbicidal effect (h.e.): g a.c./ha: PYR 300, MES 100, PYR + MES 300 + 90
Protocol: as §1, §3

[3] = system: Brassica rapa Canola cultivars; experiment: Field trial post-emergence in maize: BRSRC; conditions: 13-14 DAA, # = 1
Protocol: as §1, §3

Chenopodium album = experiment: Field trial post-emergence in maize: CHEAL; conditions: 13-14 DAA, # = 1
Protocol: as §1, §3

Sinapis arvensis = experiment: Field trial post-emergence in maize: SINAR; conditions: 13-14 DAA; # = 1; g a.c./ha: PYR 450, TOP 12.4, PYR + TOP 450 + 12.4
Protocol: as §1, §2

Bassia scoparia = experiment: Field trial post-emergence in maize: KCHSC; conditions: 13-14 DAA; # = 2; g a.c./ha: PYR 450, TEM 38, PYR + TEM 450 + 38
Protocol: as §1, §2

Veronica persica [4] = experiment: Examples 6-8 herbicidal effect: VERPE; conditions: 7 DAA
Geranium dissectum = experiment: Examples 6-8 herbicidal effect: GERDI; conditions: 7 DAA
Echinochloa crus-galli = experiment: Examples 6-8 herbicidal effect: ECHCG; conditions: 7 DAA
Lamium amplexicaule = experiment: Example 6 herbicidal effect: LAMAM; conditions: 7 DAA
Lamium purpureum = experiment: Field trial post-emergence in maize: LAMPU
Protocol: as §1, §3
(§4) Example 1 concerns a herbicide composition comprising a combination of pyridate and mesotrione, which was applied post-emergence on unwanted vegetation on a field where maize was cultivated, according to the test conditions mentioned above.

Matricaria chamomilla = experiment: Field trial post-emergence in maize: MATCH
Protocol: as §1, §3, §4

Polygonum aviculare = experiment: Field trial post-emergence in maize: POLAV
Protocol: as §1, §3, §4

Setaria viridis = experiment: Field trial post-emergence in maize: SETVI
Protocol: as §1, §3, §4

[5] = g a.c./ha: PYR 450, TOP 12.4, PYR + TOP 450 + 12.4
[6] = g a.c./ha: PYR 10, TEM 22, PYR + TEM 10 + 100
[7] = g a.c./ha: PYR 300, PYR + MES 300 + 80
[8] = g a.c./ha: PYR 300, SCT 300, PYR + SCT 300 + 300
[9] = g a.c./ha: PYR 300, TEM 100, PYR + TEM 300 + 100
[10] = g a.c./ha: PYR 450, SCT 450, PYR + SCT 300 + 450
[11] = g a.c./ha: PYR 600, PYR + SCT 600 + 300
[12] = g a.c./ha: PYR 900, TEM 44, PYR + TEM 900 + 44

## CCCCCCCCSC(=O)Oc1cc(Cl)nnc1-c1ccccc1 [PYR, (6-chloro-3-phenylpyridazin-4-yl) octylsulfanylformate]
Abutilon theophrasti
  herbicidal effect (h.e.): 73%
Datura stramonium
  herbicidal effect (h.e.): 70%
[1]; 7-14 DAA
  herbicidal effect (h.e.): 3%
[1]; 18-28 DAA
  herbicidal effect (h.e.): 5%
[1]; 31-48 DAA
  herbicidal effect (h.e.): 5%
[1]; MATIN 24-31 DAA 300 g a.c./ha
  PYR h.e.: 75%
[1]; MATIN 24-31 DAA 600 g a.c./ha
  PYR h.e.: 60%
[1]; MATIN 24-31 DAA 900 g a.c./ha
  PYR h.e.: 55%
Portulaca oleracea; 7-14 DAA
  herbicidal effect (h.e.): 30%
Portulaca oleracea; 18-28 DAA
  herbicidal effect (h.e.): 11%
Sonchus oleraceus; 7-14 DAA
  herbicidal effect (h.e.): 93%
Sonchus oleraceus; 18-28 DAA
  herbicidal effect (h.e.): 51%
Sonchus oleraceus; 31-48 DAA
  herbicidal effect (h.e.): 37%
Veronica persica [2]; 7-14 DAA, # = 4
  herbicidal effect (h.e.): 58%
Veronica persica [2]; 31-48 DAA, # = 5
  herbicidal effect (h.e.): 44%
Veronica persica [2]; VERPE 14-20 DAA 300 g a.c./ha
  PYR h.e.: 0%
Veronica persica [2]; VERPE 14-20 DAA 600 g a.c./ha
  PYR h.e.: 20%
Veronica persica [2]; VERPE 14-20 DAA 900 g a.c./ha
  PYR h.e.: 40%
Veronica persica [2]; VERPE 24-31 DAA 300 g a.c./ha
  PYR h.e.: 10%
Veronica persica [2]; VERPE 24-31 DAA 600 g a.c./ha
  PYR h.e.: 0%
Veronica persica [2]; VERPE 24-31 DAA 900 g a.c./ha
  PYR h.e.: 0%
[3]; g a.c./ha: PYR 450, MES 144, PYR + MES 450 + 144
  herbicidal effect (h.e.): 48%
[3]; [5]
  herbicidal effect (h.e.): 48%
Chenopodium album; g a.c./ha: PYR 450, TEM 38, PYR + TEM 450 + 38
  herbicidal effect (h.e.): 49%
Chenopodium album; [5]
  herbicidal effect (h.e.): 35%
Sinapis arvensis
  herbicidal effect (h.e.): 57%
Bassia scoparia
  herbicidal effect (h.e.): 66%
Veronica persica [4]; [6]
  herbicidal effect (h.e.): 0%
Veronica persica [4]; [7]
  herbicidal effect (h.e.): 8%
Veronica persica [4]; [8]
  herbicidal effect (h.e.): 10%
Veronica persica [4]; [9]
  herbicidal effect (h.e.): 10%
Veronica persica [4]; [10]
  herbicidal effect (h.e.): 15%
Veronica persica [4]; [11]
  herbicidal effect (h.e.): 10%
Veronica persica [4]; [12]
  herbicidal effect (h.e.): 50%
Geranium dissectum; [6]
  herbicidal effect (h.e.): 0%
Geranium dissectum; [7]
  herbicidal effect (h.e.): 5%
Geranium dissectum; [8]
  herbicidal effect (h.e.): 15%
Geranium dissectum; [9]
  herbicidal effect (h.e.): 5%
Geranium dissectum; [10]
  herbicidal effect (h.e.): 30%
Geranium dissectum; [11]
  herbicidal effect (h.e.): 15%
Geranium dissectum; [12]
  herbicidal effect (h.e.): 10%
Echinochloa crus-galli; [6]
  herbicidal effect (h.e.): 0%
Echinochloa crus-galli; [7]
  herbicidal effect (h.e.): 0%
Echinochloa crus-galli; [8]
  herbicidal effect (h.e.): 0%
Echinochloa crus-galli; [9]
  herbicidal effect (h.e.): 0%
Echinochloa crus-galli; [10]
  herbicidal effect (h.e.): 0%
Echinochloa crus-galli; [11]
  herbicidal effect (h.e.): 0%
Echinochloa crus-galli; [12]
  herbicidal effect (h.e.): 5%
Lamium amplexicaule; [6]
  herbicidal effect (h.e.): 0%
Lamium amplexicaule; [9]
  herbicidal effect (h.e.): 5%
Lamium amplexicaule; [12]
  herbicidal effect (h.e.): 10%
Lamium purpureum; LAMPU 14-20 DAA 300 g a.c./ha
  PYR h.e.: 28%
Lamium purpureum; LAMPU 14-20 DAA 600 g a.c./ha
  PYR h.e.: 60%
Lamium purpureum; LAMPU 14-20 DAA 900 g a.c./ha
  PYR h.e.: 65%
Lamium purpureum; LAMPU 24-31 DAA 300 g a.c./ha
  PYR h.e.: 14%
Lamium purpureum; LAMPU 24-31 DAA 600 g a.c./ha
  PYR h.e.: 46%
Lamium purpureum; LAMPU 24-31 DAA 900 g a.c./ha
  PYR h.e.: 67%
Matricaria chamomilla; MATCH 14-20 DAA 300 g a.c./ha
  PYR h.e.: 25%
Matricaria chamomilla; MATCH 14-20 DAA 600 g a.c./ha
  PYR h.e.: 45%
Matricaria chamomilla; MATCH 14-20 DAA 900 g a.c./ha
  PYR h.e.: 61%
Matricaria chamomilla; MATCH 24-31 DAA 300 g a.c./ha
  PYR h.e.: 5%
Matricaria chamomilla; MATCH 24-31 DAA 600 g a.c./ha
  PYR h.e.: 26%
Matricaria chamomilla; MATCH 24-31 DAA 900 g a.c./ha
  PYR h.e.: 39%
Polygonum aviculare; POLAV 14-20 DAA 300 g a.c./ha
  PYR h.e.: 18%
Polygonum aviculare; POLAV 24-31 DAA 300 g a.c./ha
  PYR h.e.: 17%
Setaria viridis; SETVI 14-20 DAA 300 g a.c./ha
  PYR h.e.: 10%
Setaria viridis; SETVI 14-20 DAA 600 g a.c./ha
  PYR h.e.: 20%
Setaria viridis; SETVI 14-20 DAA 900 g a.c./ha
  PYR h.e.: 25%
Setaria viridis; SETVI 24-31 DAA 300 g a.c./ha
  PYR h.e.: 0%
Setaria viridis; SETVI 24-31 DAA 600 g a.c./ha
  PYR h.e.: 0%
Setaria viridis; SETVI 24-31 DAA 900 g a.c./ha
  PYR h.e.: 0%

Source: US12396459B2, “Synergistically effective herbicide composition comprising pyridate and at least one defined 4-HPPD inhibitor” (BELCHIM CROP PROTECTION NV, priority 2018, dated 2025)
